According to EP1779117B1, “METHODS FOR MEASURING ADAMTS13 ACTIVITY ON THE SURFACE OF PLATELETS” (American Diagnostica Inc., priority 2004, dated 2006):
Starred links: 1 amine or outer side, 2 acyl side, 3 side chain; linkers in the order of their positions; H or OH if unused. Residues, ends and D or L forms follow the SMILES beside them. *: point of attachment. EDANS = O=S(=O)(O)c1cccc2c(NCCN*)cccc12; pNA = O=[N+]([O-])c1ccc(N*)cc1; AMC = Cc1cc(=O)oc2cc(N*)ccc12; Suc = O=C(CCC(=O)[*:2])[*:1]

What was measured:
ADAMTS13 = assay: Cleavage of peptidyl substrates by ADAMTS13 in PRP (optical density / fluorescence); format: biochemical; settings: for cleavage by ADAMTS13 in PRP: normal PRP 20 µl, 10 mM Tris-HCl pH 8.0, 37° C, Ex 360 nm/ Em 460 nm
Description: As discussed above, Furlan et al. reported that some peptidyl-pNA moieties, such as XLY-pNA and XVY-pNA, were not substrates for ADAMTS13. We prepared LVY-pNA and tested it for its ability to be cleaved by ADAMTS 13. The results shown in Figure 2 confirm the findings of Furlan et al., i.e., LVY-pNA was not cleaved by ADAMTS13.
In order to determine the effect of modifying the length of the peptide sequence conjugated to the AMC fluorochrome, normal PRP (20 µl) was incubated at 37° C with a final concentration of 0.8 mM Suc-LLVY-AMC or LVY-AMC in 10 mM Tris-HCl pH 8.0 buffer in total volume of 200 µl. Fluorescence was measured using a microtiter fluorophotometric plate reader (Ex 360 nm/ Em 460 nm).

[1] = test system: ADAMTS13 found on platelets; assay: FRET substrate cleavage by isolated platelets; format: biochemical; settings: 8 µg/ml substrate, 10mM Tris-HCl pH 8.0, 37°C, Ex 360 nm/ Em 440 nm, Figure 4
Description: ADAMTS13 activity was measured using a fluorescent substrate attached to a donor moiety and an acceptor moiety that functions by fluorescence resonance energy transfer (FRET). The ADAMTS 13 selective substrate, NH2-Arg-Lys(DABCYL)-NLVYMVTGD(EDANS)-Arg-COOH, was used in this example. The NLVYMVTGD peptide sequence of this substrate is homologous to the ADAMTS13 cleavage site on VWF. The intact peptidyl substrate has low fluorescence, due to quenching of the […]. Cleavage of the substrate between the tyrosine and methionine of the peptide sequence results in an increase in fluorescence.
Isolated platelets in 10mM Tris-HCl pH 8.0 assay buffer were incubated with a final concentration of 8 µg/ml of the FRET substrate at 37°C. The fluorescence was measured in a spectrofluorometric plate reader (Ex 360 nm/ Em 440 nm). […] The skilled artisan can design other FRET substrates for measuring ADAMTS 13 activity using his or her own knowledge and the teachings herein.

## Cc1cc(=O)oc2cc(NC(=O)[C@H](Cc3ccc(O)cc3)NC(=O)[C@@H](NC(=O)[C@@H](N)CC(C)C)C(C)C)ccc12 [LVY-AMC, Leu-Val-Tyr-AMC] (H-Leu-Val-Tyr-{AMC})
ADAMTS13; 0.8 mM substrate, Figure 3
  cleavage by ADAMTS13 in PRP: cleaved

## CC(C)C[C@H](N)C(=O)N[C@H](C(=O)N[C@@H](Cc1ccc(O)cc1)C(=O)Nc1ccc([N+](=O)[O-])cc1)C(C)C [LVY-pNA] (H-Leu-Val-Tyr-pNA)
ADAMTS13; LVY-pNA tested as substrate, Figure 2
  cleavage by ADAMTS13: not cleaved

## Cc1cc(=O)oc2cc(NC(=O)[C@H](Cc3ccc(O)cc3)NC(=O)[C@@H](NC(=O)[C@H](CC(C)C)NC(=O)[C@H](CC(C)C)NC(=O)CCC(=O)O)C(C)C)ccc12 [Suc-LLVY-AMC, Suc-Leu-Leu-Val-Tyr-AMC] (Suc-LLVY-{AMC})
ADAMTS13; 0.8 mM substrate, Figure 3
  cleavage by ADAMTS13 in PRP: cleaved
ADAMTS13; normal PRP, 0.8 mM substrate, 37° C, Figure 3
  fluorescence signal over time compared to the other AMC substrate: higher signal over time

## NH2-Arg-Lys-(DABCYL)- Asn-Leu- Val-Tyr-Met- Val- Thr-Gly-Asp-(EDANS)-Arg-COOH ({H2N-Arg-K(DABCYL)}-NLVYMVTGD(EDANS)R-OH; also: EDANS after Asp (on Asp side chain or between Asp and Arg))
[1]
  fluorescence on incubation with platelets (cleavage of FRET substrate): increased fluorescence over time
